From patent US9255132B2, “Angiopoietin derived peptides” (Compugen Ltd., priority 2008, dated 2016)
Residues, ends and D or L forms follow the SMILES beside them.

Columns and labels:
[1] = system: oxygen-induced retinopathy (OIR); test: Rodent model of oxygen-induced retinopathy (OIR); assay type: in vivo, Sprague Dawley rats; details: for inhibition of pre-retinal neovascular growth (pathological angiogenesis): relative to PBS-injected eyes, P20
Excerpt: In order to assess the in viva efficacy of CGEN-A 11 [SEQ ID NO: 10] in a disease model of angiogenesis, a rodent model of oxygen-induced retinopathy (OIR) was used. Sprague Dawley rats were raised from birth through day PI4 in a variable oxygen atmosphere consisting of 24-hour alternating cycles of 50% and 10% oxygen. Rats were predisposed to pathological retinal angiogenesis as a result of oxygen treatment. Upon removal from the oxygen exposure chamber on day P14, rats received intravitreal injections of CGEN-A11 [SEQ ID NO: 10] in one of two doses: 15 μg/ml (low) or 75 μg/ml (high), 100 μg/ml recombinant rat Tie-2/Fc (R&D Systems, 3874-T2) or 100 μg/ml anti-VEGFR2 (Sigma, V1014) as positive controls, a combination of CGEN-A11 [SEQ ID NO: 10] at 30 μg/ml and anti-VEGFR2 (100 μg/ml), or vehicle (PBS) at a volume of 5 μl. An additional similar intravitreal administration took place 3 days later, on day P17. All pups were sacrificed on day P20. Both normal, intra-retinal vascular growth and abnormal, pre-retinal neovascular growth were assessed at six days post-exposure (P20) in ADPase-stained retinal flat-mounts, using widely published methods (e.g. Penn J S et al., 1991, Invest Ophthalmol Vis Sci. 32(4):1147; MicLeod D S et al., 1987, Microvasc Res. 33:257-269). All assessments were performed by a single, highly trained observer, who was blinded to treatment group. Areas of normal and abnormal vascular growth were measured via computer-assisted image analysis using high-resolution digital images of the stained retinal flat-mounts. The data were subjected to analysis of variance to determine statistical significance and a Dunnett's post hoc test to identify how the various treatment groups compared.
Data are depicted using percent total retinal area vascularized. Sample sizes (10, 11 or 12) are indicated on each bar. […] These differences yielded statistical significance, both at p<0.0001. Statistical significance was calculated using area (mm^2) measurements.
Data are depicted as area vascularized (mm^2). Sample sizes (10, 11 or 12) are indicated on each bar.

[2] = biological target: T1, recombinant human Tie-2/Fc chimera (Homo sapiens, UniProt Q02763); test: BIACORE (SPR) direct binding of peptides to immobilized Tie2; details: 10-50 μM peptide
T1 construct: purchased R&D Systems 313-TI
Excerpt: The capability of CGEN-G6 [SEQ ID NO: 6], CGEN-F9 [SEQ ID NO: 7], CGEN-C6 [SEQ ID NO: 9], CGEN-A11 [SEQ ID NO: 10], and CGEN-G2 [SEQ ID NO: 11] to specifically bind to recombinant Tie2 and interfere with the binding of Ang1, Ang2, or Ang4 to Tie2 was investigated using the BIACORE technology, measuring protein-protein interaction and binding affinity (Wendler et al 2005, Anal Bioanal Chem, 381: 1056-1064). The technology is based on surface plasmon resonance (SPR), an optical phenomenon that enables detection of unlabeled interactants in real time. […]
Peptide-protein interaction was analyzed using surface plasmon resonance. […] Solutions containing 10-50 μM of CGEN-G6 [SEQ ID NO: 6], CGEN-F9 [SEQ ID NO: 7], CGEN-C6 [SEQ ID NO: 9], CGEN-A11 [SEQ ID NO: 10], and CGEN-G2 [SEQ ID NO: 11] were injected into the sample chamber of the BIACORE device at a rate of 20 μl/min and the interaction was monitored using surface plasmon resonance. In addition, solutions containing 100-500 nM of Ang1, Ang2, and Ang4 proteins were injected alone or in combination with 10-50 μM of CGEN-G6 [SEQ ID NO: 6], CGEN-F9 [SEQ ID NO: 7], CGEN-C6 [SEQ ID NO: 9], CGEN-A11 [SEQ ID NO: 10], and CGEN-G2 [SEQ ID NO: 11] peptides at a constant ratio of 1:100 (Ang ligand to peptide) into the sample chamber of the BIACORE device at a rate of 20 μl/min and the interaction was monitored using surface plasmon resonance. […]

T1 sequence (Q02763 with tags, fused parts or gaps limits assumed): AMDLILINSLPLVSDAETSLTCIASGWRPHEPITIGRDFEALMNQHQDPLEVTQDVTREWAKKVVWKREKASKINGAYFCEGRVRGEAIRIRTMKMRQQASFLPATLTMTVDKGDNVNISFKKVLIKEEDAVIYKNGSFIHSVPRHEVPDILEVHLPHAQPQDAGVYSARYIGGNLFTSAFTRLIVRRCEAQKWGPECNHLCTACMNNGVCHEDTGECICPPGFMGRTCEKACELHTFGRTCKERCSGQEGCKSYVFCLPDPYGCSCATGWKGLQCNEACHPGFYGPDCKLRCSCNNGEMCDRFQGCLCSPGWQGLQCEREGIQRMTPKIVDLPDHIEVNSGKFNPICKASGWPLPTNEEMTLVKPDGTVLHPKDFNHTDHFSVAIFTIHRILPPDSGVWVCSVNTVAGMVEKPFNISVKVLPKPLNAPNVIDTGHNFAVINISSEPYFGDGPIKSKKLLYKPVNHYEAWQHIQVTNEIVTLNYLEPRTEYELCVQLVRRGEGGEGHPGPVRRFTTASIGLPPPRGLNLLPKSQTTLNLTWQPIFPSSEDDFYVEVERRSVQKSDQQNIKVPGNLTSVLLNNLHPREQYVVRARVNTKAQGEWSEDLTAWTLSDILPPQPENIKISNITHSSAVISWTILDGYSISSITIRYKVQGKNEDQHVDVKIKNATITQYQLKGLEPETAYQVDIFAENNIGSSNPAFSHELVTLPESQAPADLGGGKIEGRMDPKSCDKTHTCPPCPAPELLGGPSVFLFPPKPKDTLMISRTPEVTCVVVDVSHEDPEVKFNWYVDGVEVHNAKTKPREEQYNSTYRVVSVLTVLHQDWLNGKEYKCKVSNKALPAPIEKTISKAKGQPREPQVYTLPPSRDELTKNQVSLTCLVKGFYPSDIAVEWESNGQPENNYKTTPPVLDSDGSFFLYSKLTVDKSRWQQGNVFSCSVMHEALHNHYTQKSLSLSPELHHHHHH

| SMILES | inhibition of pre-retinal neovascular growth (pathological angiogenesis) ([1]; intravitreal 15 μg/ml) | intra-retinal normal vascular growth compared to PBS control ([1]; intravitreal 75 μg/ml, 5 μl, P14 and P17, assessed P20, p<0.0001) | inhibition of pre-retinal neovascular growth (pathological angiogenesis) ([1]; intravitreal 75 μg/ml, p=0.0126) | binding of peptide alone to immobilized Tie2 [2] |
| --- | --- | --- | --- | --- |
| CC(=O)N[C@@H](CCC(=O)O)C(=O)N[C@H](C(=O)N[C@@H](Cc1ccccc1)C(=O)N[C@@H](CC(C)C)C(=O)N[C@@H](CO)C(=O)N[C@H](C(=O)N[C@@H](CC(N)=O)C(=O)N[C@@H](CCCCN)C(=O)N[C@@H](CC(C)C)C(=O)N[C@@H](CCC(=O)O)C(=O)N[C@@H](CC(N)=O)C(=O)N[C@@H](CCC(N)=O)C(N)=O)[C@@H](C)O)[C@@H](C)O [CGEN-A11, ETFLSTNKLENQ] (Ac-ETFLSTNKLENQ-NH2) | 38.9% | statistically significant increase | 76.4% | – |
| CC[C@H](C)[C@H](NC(=O)[C@H](C)NC(=O)[C@H](CCCNC(=N)N)NC(=O)[C@H](CCC(=O)O)NC(=O)[C@H](CC(C)C)NC(=O)[C@H](CCCCN)NC(=O)[C@H](CCCCN)NC(=O)[C@H](CC(C)C)NC(=O)[C@H](Cc1c[nH]c2ccccc12)NC(=O)[C@H](CCC(N)=O)NC(=O)[C@@H](NC(=O)[C@H](CC(N)=O)NC(=O)[C@H](CC(N)=O)NC(=O)[C@H](CCC(N)=O)NC(=O)[C@H](CC(C)C)NC(=O)[C@H](C)NC(=O)[C@H](CCC(N)=O)NC(=O)[C@H](CCC(=O)O)NC(=O)[C@H](CC(C)C)NC(=O)[C@H](CCC(N)=O)NC(=O)[C@H](CCCCN)NC(=O)[C@@H](NC(=O)[C@H](CCC(N)=O)NC(=O)[C@H](CCC(N)=O)NC(=O)[C@@H](NC(C)=O)[C@@H](C)O)C(C)C)[C@@H](C)O)C(=O)N[C@@H](CCCCN)C(=O)N[C@H](C(=O)N[C@H](C(=O)N[C@@H](CC(C)C)C(N)=O)[C@@H](C)CC)[C@@H](C)O [CGEN-G2] (Ac-TQQVKQLEQALQNNTQWLKKLERAIKTIL-NH2) | – | – | – | some non specific binding |
